Molecules are shown by their SMILES. In brackets after ≈: the same amount, converted by molar mass.

Holding throughout (format): functional
Settings in all cases: read-out: ED50 (the source's name)

The subject of one assay is SK-MEL-28. The assay is described as follows: Cytotoxicity against human SK-MEL-28 cells.
The subject of another assay is P388. As to the kind of experiment: Cytotoxicity against mouse P388 cells.
The next assay relates to HT-29. As to the kind of experiment: Cytotoxicity against human HT-29 cells.
In the next assay the test system is A549. As to the kind of experiment: Cytotoxicity against human A549 cells.

In the case of `C=C1C[C@H]2O[C@H]([C@H]3[C@@H]2[C@](C)(OC(C)=O)CC[C@@H]3C(C)C)[C@](C)(OC(C)=O)CC[C@@H]1O` [PALMONINE F], the EC50 in the assay on SK-MEL-28, in the assay on P388, in the assay on HT-29 and with A549 was over 10 µg/mL in each case.

As to `CO[C@H]1CC[C@@](C)(OC(C)=O)[C@@H]2O[C@H](C[C@]1(C)O)[C@@H]1[C@H]2[C@@H](C(C)C)CC[C@@]1(C)O` [PALMONINE C], the EC50 in the assay with SK-MEL-28, in the assay with P388, in the assay with HT-29 and with A549 was over 10 µg/mL each time.

For the compound `CC(=O)O[C@]1(C)CC[C@H](C(C)C)[C@@H]2[C@H]1[C@H]1/C=C(/C)C(=O)CC[C@@](C)(OC(C)=O)[C@@H]2O1` [PALMONINE E], the EC50 in the assay on SK-MEL-28, in the assay with P388, with HT-29 and in the assay with A549 was over 10 µg/mL each time.

In the case of `CO[C@H]1CC[C@@](C)(OC(C)=O)[C@@H]2O[C@H](C[C@]1(C)O)[C@@H]1[C@H]2[C@@H](C(C)C)CC[C@@]1(C)OC(C)=O` [PALMONINE A], the EC50 in the assay with SK-MEL-28, in the assay with P388, with HT-29 and in the assay on A549 was over 10 µg/mL throughout.

As to `C=C1C[C@H]2O[C@H]([C@H]3[C@@H]2[C@](C)(OC(C)=O)CC[C@@H]3C(C)C)[C@](C)(OC(C)=O)CCC1=O` [PALMONINE D], the EC50 in the assay with SK-MEL-28, in the assay on P388, in the assay with HT-29 and in the assay on A549 was over 10 µg/mL in each case.

Consider `C=C1C[C@H]2O[C@H]([C@H]3[C@@H]2[C@](C)(OC(C)=O)CC[C@@H]3C(C)C)[C@](C)(OC(C)=O)CC[C@@H]1OC(C)=O` [PALMONINE B], for which the EC50 with SK-MEL-28 and with P388 was 5 µg/mL (≈ 10.8 µM) throughout.
